Consider 1 molecule from article PMC11858653, “Design, Synthesis and Bioactive Evaluation of Topo I/c-MYC Dual Inhibitors to Inhibit Oral Cancer via Regulating the PI3K/AKT/NF-κB Signaling Pathway” (Molecules, 2025).

Broadly, the IC50 is the midpoint of a concentration-inhibition curve. A high value points to weaker potency.

The test system of one experiment is SV-HUC-1. The experiment can be described thus: MTT assay, normal cell line SV-HUC-1. The experiment is classed as cell-based. The note with it: SV-HUC1, 48 h, mean ± SD. (Tetrazolium dyes change colour on reduction, which living cells bring about.)
The test system of another experiment is ACHN. Description: MTT antiproliferative assay, ACHN. The note with it: Homo sapiens, ACHN, 48 h, mean ± SD. The experiment is classed as cell-based, human.
In a further experiment the target is T1, Topo I (Homo sapiens, UniProt P11387).
T1 sequence (P11387 1-765): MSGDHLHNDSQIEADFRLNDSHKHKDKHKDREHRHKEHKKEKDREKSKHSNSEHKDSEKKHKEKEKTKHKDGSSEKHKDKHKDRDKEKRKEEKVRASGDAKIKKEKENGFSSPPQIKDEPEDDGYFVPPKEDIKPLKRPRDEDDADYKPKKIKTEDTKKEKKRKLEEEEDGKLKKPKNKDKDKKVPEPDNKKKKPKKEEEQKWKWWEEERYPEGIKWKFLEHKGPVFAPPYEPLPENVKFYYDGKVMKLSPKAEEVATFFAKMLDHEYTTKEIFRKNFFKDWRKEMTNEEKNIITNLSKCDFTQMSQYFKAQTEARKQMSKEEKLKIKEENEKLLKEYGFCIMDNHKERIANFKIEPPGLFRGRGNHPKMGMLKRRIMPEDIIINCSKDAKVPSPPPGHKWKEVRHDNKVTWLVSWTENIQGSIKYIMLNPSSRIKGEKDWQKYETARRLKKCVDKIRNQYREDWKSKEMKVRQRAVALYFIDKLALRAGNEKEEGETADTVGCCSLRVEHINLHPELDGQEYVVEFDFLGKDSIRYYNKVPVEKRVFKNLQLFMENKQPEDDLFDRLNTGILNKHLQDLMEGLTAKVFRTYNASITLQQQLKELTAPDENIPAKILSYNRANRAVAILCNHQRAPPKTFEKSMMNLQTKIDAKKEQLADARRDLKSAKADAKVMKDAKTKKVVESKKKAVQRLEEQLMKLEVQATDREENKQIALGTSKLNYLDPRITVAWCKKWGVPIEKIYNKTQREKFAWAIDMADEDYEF
The experiment can be described thus: Topo I inhibitory activity, agarose gel electrophoresis (pBR322). In kind it is biochemical. As to the method:
In this assay, 250 ng of pBR322 plasmid DNA, different concentrations of the compounds to be tested, 0.1% BSA 1 μL, 10× Topo I buffer, Topo I and add 1× TAE buffer were mixed to a final volume of 20 μL. The reaction was carried out for 30 min at 37 °C in a water bath. After the reaction was terminated, 4 μL of each of the 6× DNA Sampling Buffers were added to the gel. The pBR322 plasmid DNA alone was used as a negative control, and camptothecin was used as a positive control. Finally, the samples were loaded onto the gels and electrophoresed for about 1.5 h. After electrophoresis, the gel blocks were incubated in 1 mg/L ethidium bromide (EB) for 30 min and then visualized on the gel system.

In another experiment the test system is PI3K/AKT/NF-κB pathway. The experiment can be described thus: Western blot of PI3K/AKT/NF-κB signaling pathway in Cal27 cells. In kind it is cell-based, human. The note with it: Cal27, 24 h. As to the method:
After Cal27 cells had been treated with the desired concentration of each drug for 24 h, the cells were collected and the total protein was extracted. The cells were then separated on a gel of appropriate concentration and transferred to a PVDF membrane. After blocking with milk, the membrane was incubated with primary antibody at 4 °C overnight. Subsequently, the membrane was incubated with horseradish peroxidase-coupled secondary antibody for 2 h. Finally, the protein bands were used to detect the immunoreactive signal using an enhanced chemiluminescence kit.

Experiment [1] relates to Cal27 cells. The experiment can be described thus: Wound healing assay. The experiment is classed as cell-based, human. The note with it: 1-4 μM, 24 h. How it is done:
Cal27 cells in the logarithmic growth phase were inoculated into 6-well plates and cultured until the cells fused into a monolayer. A linear wound was then formed by scratching vertically with a 200 μL sterilized gun tip. The cells were washed 3 times with PBS to remove scraped off cells, and each well was incubated by adding medium. The initial scratched area was recorded with a microscope. Then different concentrations of the compounds to be tested were added, and the area of the scratches was recorded by microscopy 24 h later.

Experiment [2] deals with Cal27 cells. Description: Colony formation assay. In kind it is cell-based, human. The note with it: Cal27, tested 0.5, 1, 1.5 μM. As to the method:
The colony formation assay was used to evaluate the antiproliferative effect of compound 7be on Cal27 cells. Cal27 cells were grown in 6-well plates at a density of 700 cells per well and then treated with different concentrations of compound 7be for 48 h. The treatment medium was removed and fresh medium was added. After 2 weeks of culture, cells were fixed with 4% paraformaldehyde for 8 min and stained with crystal violet solution (10%). Finally, they were imaged with a camera.

With `Cc1cc(C)c2c(n1)S(=O)(=O)c1c-2nc(NCCN2CCCCC2)c2ccccc12` [7be, 7,9-Dimethyl-5-((2-(piperidin-1-yl)ethyl)amino) pyrido[3′,2′:4,5]thieno[3,2-c]isoquinoline 11,11-dioxide], in the experiment with SV-HUC-1, inhibition was half-maximal at 5.18 ± 1.77 µM (IC50). In the experiment on ACHN, this molecule yielded an IC50 of 3.25 ± 1.59 µM. On Topo I (20 μM), the “Topo I inhibitory activity (in words)” value is recorded as “potent Topo I activity”. The “concentration at which the activity of Topo I was fully inhibited” value on Topo I (different concentrations) worked out at 20 µM. In the experiment with PI3K/AKT/NF-κB pathway, the “expression and phosphorylation levels of NF-κB” value was “decrease”; the “expression levels of PI3K” value was “slightly increased”; the “phosphorylation levels of PI3K and AKT” value was “significantly repressed”. In the experiment on Cal27 cells [1], the “migration of Cal27 cells (in words)” value was “effectively inhibit migration”. Besides, the “concentration completely suppressing colony formation ability” value in the experiment with Cal27 cells [2] stood at 1.5 µM.
